Test results as given in US9732087B2, “Diamino-pyridine, pyrimidine, and pyridazine modulators of the histamine H4 receptor” (JANSSEN PHARMACEUTICA NV, priority 2008, dated 2017).
Counter-ions that a name gives are not always drawn.

Each compound was assayed against human H4 receptor (Homo sapiens (Human), UniProt Q9H3N8) (assay: Binding assay on recombinant human histamine H4 receptor ([3H]histamine competition, SK-N-MC cell membranes)). Conditions: membranes harvested with cell harvester; [3H]histamine 10 nM; average of results; read-out: Cell Harvester Ki.
Method: Binding Assay on Recombinant Human Histamine H4Receptor
Cell pellets from SK-N-MC cells stably or transiently transfected with human H4 receptor (NCBI accession No. AF312230) were used for the binding assays. Cell pellets were homogenized in 50 mM Tris/5 mM EDTA buffer and supernatants from an 800 g spin were collected and recentrifuged at 30,000 g for 30 min. Pellets were rehomogenized in 50 mM Tris/5 mM EDTA buffer. […] Membranes were harvested by rapid filtration using the 96 well Brandel system (Table 1, Brandel) or a cell harvester (Table 1, Cell Harvester) using a Whatman GF/C filter or filter plates treated with 0.5% polyethylenimine (PEI), and washed 4 times with ice-cold 50 mM Tris/5 mM EDTA buffer. Filters were then dried, mixed with scintillant and radioactive counts were determined. […] Where activity is shown as greater than (>) a particular value, the value is the highest concentration tested.

human H4 receptor, sequence (Q9H3N8 whole entry): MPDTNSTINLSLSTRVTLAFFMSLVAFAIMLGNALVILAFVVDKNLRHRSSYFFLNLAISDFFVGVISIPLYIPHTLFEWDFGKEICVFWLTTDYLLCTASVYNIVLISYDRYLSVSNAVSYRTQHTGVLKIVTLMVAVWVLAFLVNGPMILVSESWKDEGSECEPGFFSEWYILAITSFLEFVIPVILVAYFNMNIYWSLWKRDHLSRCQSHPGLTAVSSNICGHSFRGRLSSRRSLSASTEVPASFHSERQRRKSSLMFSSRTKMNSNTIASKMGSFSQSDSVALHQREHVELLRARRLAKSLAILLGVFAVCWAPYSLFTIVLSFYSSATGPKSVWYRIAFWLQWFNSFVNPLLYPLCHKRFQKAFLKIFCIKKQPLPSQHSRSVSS

Going from `CN[C@H]1CCN(c2ccnc(NC3CC3)n2)C1` [Example 145, N-Cyclopropyl-4-[(3S)-3-(methylamino)pyrrolidin-1-yl]pyrimidin-2-amine] to `CN[C@@H]1CCN(c2ccnc(NC3CC3)n2)C1` [Example 80, Cyclopropyl-[4-(3R)-(3-methylamino-pyrrolidin-1-yl)-pyrimidin-2-yl]-amine], the Ki falls from 923 nM to 23.5 nM (39-fold).

Going from `CN[C@@H]1CCN(c2ccnc(NCc3ccc(F)cc3)c2)C1` [Example 7, N-(4-Fluorobenzyl)-4-[(3R)-3-(methylamino)pyrrolidin-1-yl]pyridin-2-amine dihydrochloride] to `CN[C@H]1CCN(c2cnnc(NCc3ccc(F)cc3)c2)C1` [Example 399, N-(4-Fluorobenzyl)-5-[(3S)-3-(methylamino)pyrrolidin-1-yl]pyridazin-3-amine], the Ki rises from 13.7 nM to 3940 nM (290-fold).

`CNC1CCN(c2cnnc(NCc3ccccn3)c2)C1` (stereo in doubt) [Example 402, 5-[(3S)-3-(Methylamino)pyrrolidin-1-yl]-N-(pyridin-2-ylmethyl)pyridazin-3-amine] and `CN[C@H]1CCN(c2ccnc(NCc3ccccn3)c2)C1` [Example 229, 4-[(3S)-3-(Methylamino)pyrrolidin-1-yl]-N-(pyridin-2-ylmethyl)pyridin-2-amine] cannot be ordered by Ki: greater than 10000 nM for the first, greater than 10000 nM for the second.

First: N[C@H]1CCN(c2ccnc(NCc3ccccn3)c2)C1 [Example 258, 4-[(3S)-3-Aminopyrrolidin-1-yl]-N-(pyridin-2-ylmethyl)pyridin-2-amine]
Second: N[C@@H]1CCN(c2cnnc(NCc3ccccc3)c2)C1 [Example 340, 5-[(3R)-3-Aminopyrrolidin-1-yl]-N-benzylpyridazin-3-amine]
The Ki of the first is higher: greater than 10000 nM for the first, 2030 nM for the second. The second binds more tightly here.

Compared with `C[C@@H](Nc1nccc(N2C[C@H]3CCN[C@H]3C2)n1)C1CCCCC1` [Example 115, N-[(1R)-1-Cyclohexylethyl]-4-[(3aR,6aR)-hexahydropyrrolo[3,4-b]pyrrol-5(1H)-yl]pyrimidin-2-amine], `C[C@@H](Nc1nccc(N2CC[C@@H](N)C2)n1)C1CCCCC1` [Example 103, 4-[(3R)-3-Aminopyrrolidin-1-yl]-N-[(1R)-1-cyclohexylethyl]pyrimidin-2-amine] is 5.5-fold lower in Ki: 932 nM for the first, 168 nM for the second.

Compared with `CN[C@@H]1CCN(c2ccnc(NC3C4CC5CC(C4)CC3C5)c2)C1` (stereo partly drawn) [Example 208, Adamantan-2-yl-[4-(3R)-(3-methylamino-pyrrolidin-1-yl)-pyridin-2-yl]-amine], `c1cc(N2C[C@H]3CCN[C@H]3C2)cc(NC2C3CC4CC(C3)CC2C4)n1` (stereo partly drawn) [Example 266, Adamantan-2-yl-[4-(3aR,6aR)-(hexahydro-pyrrolo[3,4-b]pyrrol-5-yl)pyridin-2-yl]-amine] is 17-fold higher in Ki: 0.86 nM for the first, 14.5 nM for the second. The first binds more tightly here.

`CN1CCN(c2cnnc(NCCc3ccccc3)c2)CC1` [Example 409, 5-(4-Methylpiperazin-1-yl)-N-(2-phenylethyl)pyridazin-3-amine] and `CN1CCN(c2cnnc(NCc3ccccc3)c2)CC1` [Example 410, N-Benzyl-5-(4-methylpiperazin-1-yl)pyridazin-3-amine] cannot be ordered by Ki: greater than 10000 nM for the first, greater than 10000 nM for the second.

Compared with `CNC1CN(c2ccnc(NCC3CCCCC3)n2)C1` [Example 102, N-(Cyclohexylmethyl)-4-[3-(methylamino)azetidin-1-yl]pyrimidin-2-amine], `CNC1CN(c2ccnc(NCC3CCCC3)c2)C1` [Example 275, N-(Cyclopentylmethyl)-4-[3-(methylamino)azetidin-1-yl]pyridin-2-amine] is 5.4-fold lower in Ki: 45.9 nM for the first, 8.55 nM for the second.

First: CN[C@@H]1CCN(c2ccnc(NCCOC)c2)C1 [Example 42, N-(2-Methoxyethyl)-4-[(3R)-3-(methylamino)pyrrolidin-1-yl]pyridin-2-amine]
Second: CN[C@H]1CCN(c2ccnc(NCC(C)(C)O)c2)C1 [Example 242, 2-Methyl-1-({4-[(3S)-3-(methylamino)pyrrolidin-1 yl]pyridin-2-yl}amino)propan-2-ol]
The Ki of the first is lower: 31.8 nM for the first, greater than 10000 nM for the second. The first binds more tightly here.

Going from `CN[C@H]1CCN(c2ccnc(NCC34CC5CC(CC(C5)C3)C4)c2)C1` [Example 251, Adamantan-1-ylmethyl-[4-(3S)-(3-methylamino-pyrrolidin-1-yl)-pyridin-2-yl]amine] to `CN[C@H]1CCN(c2ccnc(NC34CC5CC(CC(C5)C3)C4)c2)C1` [Example 210, Adamantan-1-yl-[4-(3S)-(3-methylamino-pyrrolidin-1-yl)-pyridin-2-yl]-amine], the Ki rises from 79.4 nM to 296 nM (3.7-fold). The first binds more tightly here.

Going from `c1cc(N2CCCNCC2)cc(NC2CC3CCC2C3)n1` (stereo not shown) [Example 265, N-Bicyclo[2.2.1]hept-2-yl-4-(1,4-diazepan-1-yl)pyridin-2-amine] to `N[C@@H]1CCN(c2ccnc(NC3CC4CCC3C4)n2)C1` (stereo partly drawn) [Example 43, 4-[(3R)-3-Aminopyrrolidin-1-yl]-N-[bicyclo[2.2.1]hept-2-yl]pyrimidin-2-amine], the Ki rises from 1.71 nM to 3.3 nM (1.9-fold). The first binds more tightly here.

First: CNC1CN(c2cnnc(NCC3CC3)c2)C1 [Example 327, N-(Cyclopropylmethyl)-5-[3-(methylamino)azetidin-1-yl]pyridazin-3-amine]
Second: CNC1CN(c2cnnc(NCC3CCCC3)c2)C1 [Example 370, N-(Cyclopentylmethyl)-5-[3-(methylamino)azetidin-1-yl]pyridazin-3-amine]
The Ki of the first is 2.4-fold lower: 95.3 nM for the first, 224 nM for the second. The first binds more tightly here.

`N[C@@H]1CCN(c2cnnc(NCC3CCCC3)c2)C1` [Example 359, 5-[(3R)-3-Aminopyrrolidin-1-yl]-N-(cyclopentylmethyl)pyridazin-3-amine] and `CC(C)CNc1cc(N2CC[C@H](N)C2)cnn1` [Example 339, 5-[(3S)-3-Aminopyrrolidin-1-yl]-N-(2-methylpropyl)pyridazin-3-amine] are within 1.5-fold of each other in Ki: 161 nM for the first, 220 nM for the second.

Compared with `CN1CCN(c2ccnc(NCC3CC3)n2)CC1` [Example 45, N-(Cyclopropylmethyl)-4-(4-methylpiperazin-1-yl)pyrimidin-2-amine], `CN1CCN(c2ccnc(NCC3CCCC3)n2)CC1` [Example 119, N-(Cyclopentylmethyl)-4-(4-methylpiperazin-1-yl)pyrimidin-2-amine] is 3.2-fold higher in Ki: 7.1 nM for the first, 22.9 nM for the second.

First: NC1CN(c2ccnc(NC[C@H]3CCCO3)n2)C1 [Example 94, 4-(3-Aminoazetidin-1-yl)-N-[(2R)-tetrahydrofuran-2-ylmethyl]pyrimidin-2-amine]
Second: NC1CN(c2ccnc(NCC3CC3)n2)C1 [Example 86, 4-(3-Aminoazetidin-1-yl)-N-(cyclopropylmethyl)pyrimidin-2-amine]
The Ki of the first is 26-fold higher: 868 nM for the first, 33.7 nM for the second.

Compared with `CNC1CN(c2cnnc(NCCOC)c2)C1` [Example 320, N-(2-Methoxyethyl)-5-[3-(methylamino)azetidin-1-yl]pyridazin-3-amine], `CN[C@@H]1CCN(c2cnnc(NCCCO)c2)C1` [Example 390, 3-({5-[(3R)-3-(Methylamino)pyrrolidin-1-yl]pyridazin-3-yl}amino)propan-1-ol] is higher in Ki: 4310 nM for the first, greater than 10000 nM for the second.

First: CN[C@@H]1CCN(c2ccnc(N[C@H](C)C3CCCCC3)c2)C1 [Example 209, N-[(1R)-1-Cyclohexylethyl]-4-[(3R)-3-(methylamino)pyrrolidin-1-yl]pyridin-2-amine]
Second: CN[C@@H]1CCN(c2ccnc(NC(C)C)n2)C1 [Example 78, Isopropyl-[4-(3R)-(3-methylamino-pyrrolidin-1-yl)-pyrimidin-2-yl]-amine]
The Ki of the first is 240-fold higher: 1460 nM for the first, 6 nM for the second. The second binds more tightly here.

`NC1CN(c2ccnc(NCc3ccc(F)cc3)n2)C1` [Example 92, 4-(3-Aminoazetidin-1-yl)-N-(4-fluorobenzyl)pyrimidin-2-amine] and `Fc1ccc(CNc2cc(N3CCNCC3)ccn2)cc1` [Example 40, N-(4-Fluorobenzyl)-4-piperazin-1-ylpyridin-2-amine] are within 1.5-fold of each other in Ki: 615 nM for the first, 790 nM for the second.

First: CC(C)(CO)CNc1nccc(N2CC3CCN[C@H]3C2)n1 (stereo in doubt) [Example 148, 3-({4-[(3aR,6aR)-Hexahydropyrrolo[3,4-b]pyrrol-5(1H)-yl]pyrimidin-2-yl}amino)-2,2-dimethylpropan-1-ol]
Second: CN[C@H]1CCN(c2ccnc(NCC(C)(C)CO)n2)C1 [Example 158, 2,2-Dimethyl-3-({4-[(3S)-3-(methylamino)pyrrolidin-1-yl]pyrimidin-2-yl}amino)propan-1-ol]
The Ki of the first is 14-fold lower: 250 nM for the first, 3490 nM for the second. The first binds more tightly here.

`Cc1ccc(CNc2cc(N3CCNCC3)cnn2)cc1` [Example 344, N-(4-Methylbenzyl)-5-piperazin-1-ylpyridazin-3-amine] and `NC1CN(c2cnnc(NCc3ccccc3)c2)C1` [Example 329, 5-(3-Aminoazetidin-1-yl)-N-benzylpyridazin-3-amine] cannot be ordered by Ki: greater than 10000 nM for the first, greater than 10000 nM for the second.

Compared with `CN[C@@H]1CCN(c2ccnc(NC3CC4CCC3C4)n2)C1` (stereo partly drawn) [Example 74, Bicyclo[2.2.1]hept-2-yl-[4-(3R)-(3-methylamino-pyrrolidin-1-yl)-pyrimidin-2-yl]-amine], `CN[C@@H]1CCN(c2ccnc(NCCOC)n2)C1` [Example 82, (2-Methoxy-ethyl)-[4-(3R)-(3-methylamino-pyrrolidin-1-yl)-pyrimidin-2-yl]-amine] is 38-fold higher in Ki: 1.2 nM for the first, 45.5 nM for the second. The first binds more tightly here.

Going from `CN[C@H]1CCN(c2cnnc(NCC(C)C)c2)C1` [Example 379, 5-[(3S)-3-(Methylamino)pyrrolidin-1-yl]-N-(2-methylpropyl)pyridazin-3-amine] to `CC1C(Nc2cc(N3CC[C@H](N)C3)ccn2)C[C@H]2C[C@@H]1C2(C)C` (stereo partly drawn) [Example 272, 4-[(3S)-3-Aminopyrrolidin-1-yl]-N-[(1S,5R)-2.6.6-trimethylbicyclo[3.1.1]hept-3-yl]pyridin-2-amine], the Ki rises from 296 nM to 2100 nM (7.1-fold). The first binds more tightly here.

Going from `CN1CCN(c2ccnc(NC3CCCC3)n2)CC1` [Example 48, N-Cyclopentyl-4-(4-methylpiperazin-1-yl)pyrimidin-2-amine] to `CN1CCN(c2ccnc(NCc3ccccc3)n2)CC1` [Example 165, N-Benzyl-4-(4-methylpiperazin-1-yl)pyrimidin-2-amine], the Ki rises from 26.7 nM to 732 nM (27-fold). The first binds more tightly here.
